Drawing on USRE45173E1, “Inhibitors of CYP 17” (Novartis AG, priority 2009, dated 2014), this text covers inhibition and IC50 for 37 compounds.

Test [1] concerns the target rat CYP17 lyase (Rattus norvegicus (Rat), UniProt P11715). Briefly: rat CYP 17 Lyase model, rat testes microsomes as the source. The format is biochemical. The conditions noted are these: for inhibition at 0.1 µM: 100 nM compound, read-out: rCYP17 Lyase % Inh @ 100 nM; for IC50: rat testes microsomes, substrate 0.5 μM, read-out: Lyase IC 50 nM Human/Rat (Rat). How it is done:
For routine screening, the assay was set up with 16 μg of enzyme in 50 μL reaction volume. 17α-hydroxy pregnenolone [21-3H] was added to a final concentration of 0.25 μM. NADPH is used at a final concentration of 4.2 mM. Total reaction volume was made up to 50 μL with 50 mM Phosphate buffer pH 7.5. The reaction mixture was incubated at room temperature for 90 minutes with gentle shaking. The reaction was stopped by the addition of 100 μL of buffer. 500 μL of 5% freshly prepared activated charcoal was added to the solution and mixed well by vortexing. The samples were centrifuged at 17568×g for 5 minutes. (14000 rpm). The supernatant was carefully transferred to fresh tube and 1.3 mL of scintillation fluid was added, mixed by vortexing.
The radioactivity was measured in a 1450 MicroBeta TriLux™ scintillation counter from Wallac-Perkin Elmer®, USA. The measurements were carried out in 2.0 mL Eppendorforf™ tubes. Each tube was counted for 1 minute. The amount of tritiated acetic acid released is proportional to the lyase activity. Percent lyase activity in presence of inhibitor was calculated using the formula given below.
[formula] • Sample: Enzyme reaction in presence of inhibitor. • Positive control: Enzyme reaction without inhibitor but containing DMSO at 1% final concentration. • Blank-Contains all reagents except enzyme. % Inhibition=100%−% Lyase activity
For IC50 determination, the % inhibition was plotted as a function of inhibitor concentration. The data was fitted to sigmoidal equation using Graphpad Prism® software IV to generate IC50 values.
For the rat CYP 17 Lyase Model:
The same procedure described above was used but using rat testes microsomes as the source and with a substrate concentration of 0.5 μM.

Test [2] addresses recombinant human CYP17 enzyme (Homo sapiens (Human), UniProt P05093). Briefly: Cytochrome P450, 17-20 lyase (CYP17-lyase) assay, tritiated acetic acid release from 17-α-hydroxy pregnenolone [21-3H]. The format is biochemical. The conditions noted are these: human CYP17, substrate 0.25 μM. The gist of the method:
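Membranes of cells expressing human CYP17 incubated 90 min at room temperature with [21-3H]17α-hydroxypregnenolone and 4.2 mM NADPH in 50 mM phosphate pH 7.5. Released tritiated acetic acid separated from steroids by charcoal and counted by scintillation; IC50 from sigmoidal fit of % inhibition.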

[3] abbreviates: read-out: Lyase IC 50 nM Human/Rat (Human).
Where [4] appears, read: read-out: Lyase IC 50 Human/Rat (Human).

Where two headings read alike, the source gives them in different places. Where only a bound is given, the exact number is not on record here.

recombinant human CYP17 enzyme, sequence (P05093 whole entry): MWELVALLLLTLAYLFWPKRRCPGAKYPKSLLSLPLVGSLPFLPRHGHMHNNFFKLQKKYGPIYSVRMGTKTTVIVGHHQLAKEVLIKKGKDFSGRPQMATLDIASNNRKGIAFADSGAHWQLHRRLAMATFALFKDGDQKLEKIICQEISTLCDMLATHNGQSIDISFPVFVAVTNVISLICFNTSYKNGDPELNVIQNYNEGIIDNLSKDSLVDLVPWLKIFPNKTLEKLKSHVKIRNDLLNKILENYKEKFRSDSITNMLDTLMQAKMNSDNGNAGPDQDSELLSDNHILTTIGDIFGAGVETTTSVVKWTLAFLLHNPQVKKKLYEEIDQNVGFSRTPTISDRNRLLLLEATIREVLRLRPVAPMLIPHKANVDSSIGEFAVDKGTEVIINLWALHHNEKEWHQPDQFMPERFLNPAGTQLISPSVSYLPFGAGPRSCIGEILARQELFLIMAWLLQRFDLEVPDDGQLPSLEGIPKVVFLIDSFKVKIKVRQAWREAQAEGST
rat CYP17 lyase, sequence (P11715 whole entry): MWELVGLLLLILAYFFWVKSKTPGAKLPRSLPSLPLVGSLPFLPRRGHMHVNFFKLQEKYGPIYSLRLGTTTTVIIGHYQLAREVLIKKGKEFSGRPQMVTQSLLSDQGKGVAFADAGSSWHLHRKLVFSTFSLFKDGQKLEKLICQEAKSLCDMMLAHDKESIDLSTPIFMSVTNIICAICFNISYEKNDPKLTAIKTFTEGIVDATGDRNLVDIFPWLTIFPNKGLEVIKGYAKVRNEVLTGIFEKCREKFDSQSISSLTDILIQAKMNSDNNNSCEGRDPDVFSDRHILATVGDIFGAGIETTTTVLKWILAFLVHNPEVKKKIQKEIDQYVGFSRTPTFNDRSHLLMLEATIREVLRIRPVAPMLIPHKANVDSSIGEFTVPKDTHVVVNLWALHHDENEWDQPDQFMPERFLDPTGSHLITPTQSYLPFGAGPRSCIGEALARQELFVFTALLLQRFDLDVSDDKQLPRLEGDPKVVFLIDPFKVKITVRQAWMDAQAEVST

As to `O=C1N(c2cccnc2)CCN1c1ccc2ccccc2c1` [Example 1A, 1-Naphthalen-2-yl-3-pyridin-3-yl-imidazolidin-2-one], in test [1], the inhibition at 0.1 µM worked out at 84% and the IC50 turned out to be 35 nM. In addition, the IC50 in test [2] (setting [3]) came out at 34 nM.

With `CCn1ccc2cc(N3CCN(c4cccnc4)C3=O)ccc21` [Example 2A, 1-(1-Ethyl-1H-indol-5-yl)-3-pyridin-3-yl-imidazolidin-2-one], the inhibition at 0.1 µM in test [1] was 23%. Regarding `COc1ccc2cc(N3CCN(c4cccnc4)C3=O)ccc2c1` [Example 3A, 1-(6-Methoxy-naphthalen-2-yl)-3-pyridin-3-O-imidazolidin-2-one], the inhibition at 0.1 µM in test [1] came to 31%. As to `O=C1N(c2cccnc2)CCN1c1ccc2ncsc2c1` [Example 4A, 1-Benzothiazol-6-yl-3-pyridin-3-yl-imidazolidin-2-one], the inhibition at 0.1 µM in test [1] was 59%. Moreover, in test [2] (setting [3]), the IC50 is 77 nM. Take `CCN1C(=O)CCc2cc(N3CCN(c4cccnc4)C3=O)ccc21` [Example 5A, 1-Ethyl-6-(2-oxo-3-pyridin-3-yl-imidazolidin-1-yl)-3,4-dihydro-1H-quinolin-2-one]: in test [1], the inhibition at 0.1 µM came to 51%.

Turning to `Cc1c(N2CCN(c3cccnc3)C2=O)sc2ccc(F)cc12` [Example 6A, 1-(5-Fluoro-3-methyl-benzo[b]thiophen-2-yl)-3-pyridin-3-yl-imidazolidin-2-one], in test [1], the inhibition at 0.1 µM came out at 51% and the IC50 is 157 nM. Regarding `O=C1N(c2cccnc2)CCN1c1ccc2sccc2c1` [Example 7A, 1-Benzo[b]thiophen-5-yl-3-pyridin-3-yl-imidazolidin-2-one], in test [1], the inhibition at 0.1 µM was 87% and the IC50 was determined as 16 nM. For the compound `O=C1N(c2cccnc2)CCN1c1ccc2ncccc2c1` [Example 8A, 1-Pyridin-3-yl-3-quinolin-6-yl-imidazolidin-2-one], the inhibition at 0.1 µM in test [1] is 48%.

Consider `O=C1N(c2cccnc2)CCN1c1ccc2scnc2c1` [Example 9A, 1-Benzothiazol-5-yl-3-pyridin-3-yl-imidazolidin-2-one], for which the inhibition at 0.1 µM in test [1] was determined as 18%.

For the compound `O=C1N(c2cccnc2)CCCN1c1ccc2ccccc2c1` [Example 10A, 1-Naphthalen-2-yl-3-pyridin-3-yl-tetrahydro-pyrimidin-2-one], the inhibition at 0.1 µM in test [1] is 11%.

For `Cc1cc(Cl)nc2ccc(N3CCN(c4cccnc4)C3=O)cc12` [Example 11A, 1-(2-Chloro-4-methyl-quinolin-6-yl)-3-pyridin-3-yl-imidazolidin-2-one], in test [1], the inhibition at 0.1 µM is 59% and the IC50 came to 97 nM. With `O=C1N(c2cccnc2)CCN1c1ccc2c(c1)CC/C2=N\O` [Example 12A], the inhibition at 0.1 µM in test [1] is 17%.

`O=C1N(c2cccnc2)CCCN1c1ccc2sccc2c1` [Example 13A, 1-Benzo[b]thiophen-5-yl-3-pyridin-3-yl-tetrahydro-pyrimidin-2-one]: the inhibition at 0.1 µM in test [1] is 9%.

Consider `Cc1ccncc1N1CCN(c2ccc3ccccc3c2)C1=O` [Example 14A, 1-(4-Methyl-pyridin-3-yl)-3-naphthalen-2-yl-imidazolidin-2-one], for which, in test [1], the inhibition at 0.1 µM worked out at 102% and the IC50 amounted to 2 nM. The IC50 in test [2] (setting [3]) is 17 nM.

On to `Cc1ccncc1N1CCN(c2ccc3ncsc3c2)C1=O` [Example 16A, 1-Benzothiazol-6-yl-3-(4-methyl-pyridin-3-yl)-imidazolidin-2-one], for which, in test [1], the inhibition at 0.1 µM was determined as 94% and the IC50 amounted to 5 nM. Moreover, in test [2] (setting [3]), the IC50 turned out to be 6 nM. Take `CCN1C(=O)CCc2cc(N3CCN(c4cnccc4C)C3=O)ccc21` [Example 17A, 1-Ethyl-6-[3-(4-methyl-pyridin-3-yl)-2-oxo-imidazolidin-1-yl]-3,4-dihydro-1H-quinolin-2-one]: in test [1], the inhibition at 0.1 µM came to 83% and the IC50 stood at 21 nM. As for `Cc1ccncc1N1CCN(c2ccc(-c3ccccc3)cc2)C1=O` [Example 19A, 1-Biphenyl-4-O-3-(4-methyl-pyridin-3-yl)-imidazolidin-2-one], in test [1], the inhibition at 0.1 µM came to 91% and the IC50 was found to be 11 nM. For the compound `CCn1c(=O)cc(C)c2cc(N3CCN(c4cnccc4C)C3=O)ccc21` [Example 20A, 1-Ethyl-4-methyl-6-[3-(4-methyl-pyridin-3-yl)-2-oxo-imidazolidin-1-yl]-1-1H-quinolin-2-one], in test [1], the inhibition at 0.1 µM came to 69% and the IC50 is 56 nM. Regarding `Cc1ccncc1N1CCN(c2ccc3nc(Cl)cc(C)c3c2)C1=O` [Example 21A, 1-(2-Chloro-4-methyl-quinolin-6-yl)-3-(4-methyl-pyridin-3-yl)-imidazolidin-2-one], in test [1], the inhibition at 0.1 µM was determined as 98% and the IC50 came out at 5 nM. Turning to `Cc1ccncc1N1CCN(c2ccc3[nH]c(=O)cc(C)c3c2)C1=O` [Example 22A, 4-Methyl-6-[3-(4-methyl-pyridin-3-yl)-2-oxo-imidazolodin-1yl]1H-quinolin-2-one], in test [1], the inhibition at 0.1 µM was 85% and the IC50 is 24 nM. On to `Cc1ccncc1N1CCN(c2ccc3ccccc3n2)C1=O` [Example 23A, 1-(4-Methyl-pyridin-3-yl)-3-quinolin-2-yl-imidazolidin-2-one], for which, in test [1], the inhibition at 0.1 µM was 85% and the IC50 was 20 nM. Turning to `COc1ccc2cc(N3CCN(c4cnccc4C)C3=O)ccc2c1` [Example 25A, 1-(6-Methoxy-naphthalen-2-yl)-3-(4-methyl-pyridin-3-yl)-imidazolidin-2-one], the inhibition at 0.1 µM in test [1] came out at 89%. With `Cc1ccncc1N1CCN(c2ccc(F)nc2)C1=O` [Example 30A, 1-(6-Fluoro-pyridin-3-yl)-3-(4-methyl-pyridin-3-yl)-imidazolidin-2-one], the inhibition at 0.1 µM in test [1] worked out at 76%. Take `COc1cncc(N2CCN(c3cnccc3C)C2=O)c1` [Example 32A, 1-(5-Methoxy-pyridin-3-yl)-3-(4-methyl-pyridin-3-yl)-imidazolidin-2-one]: in test [1], the inhibition at 0.1 µM was 73%.

As for `O=C1N(c2cncc(C(F)(F)F)c2)CCN1c1ccc2ccccc2c1` [Example 79A, 1-Naphthalen-2-yl-3-(5-trifluoromethyl-pyridin-3-yl)-imidazolidin-2-one], in test [1], the inhibition at 0.1 µM was found to be 3.6%. As to `O=C1N(c2cncc(Cl)c2)CCN1c1ccc2ccccc2c1` [Example 80A], in test [1], the inhibition at 0.1 µM came to 57%. On the same count and under the same terms, the value for `O=C1N(c2cncc(F)c2)CCN1c1ccc2ccccc2c1` [Example 81A, 1-(5-Fluoro-pyridin-3-yl)-3-naphthalen-2-yl-imidazolidin-2-one] was 82%. Consider `O=C1N(c2cnc3[nH]cnc3c2)CCN1c1ccc2ncsc2c1` [Example 183A, 1-Benzothiazol-6-yl-3-(3H-imidazo[4,5-b]pyridin-6-yl)-imidazolidin-2-one], for which the IC50 in test [2] (setting [4]) was > 10000 nM.

Consider `CN1CCC(COc2ccncc2N2CCN(c3ccc4ncsc4c3)C2=O)CC1` [Example 184A, 1-Benzothiazol-6-yl-3-[4-(1-methyl-piperidin-4-ylmethoxy)-pyridin-3-yl]-imidazolidin-2-one], for which the IC50 in test [2] (setting [4]) was > 10000 nM.

As for `NC(=O)c1ccncc1N1CCN(c2ccc3ncsc3c2)C1=O` [Example 185A, 3-(3-Benzothiazol-6-yl-2-oxo-imidazolidin-1-yl)-isonicotinamide], the IC50 in test [2] (setting [4]) is > 10000 nM. In the case of `O=C1N(c2ccc3ncsc3c2)CCN1c1cncc2nccn12` [Example 186A, 1-Benzothiazol-6-yl-3-imidazo[1,2-a]pyrazin-5-yl-imidazolidin-2-one], in test [2] (setting [4]), the IC50 was > 10000 nM. Same read-out and setting: as for `O=C1N(c2cnc3[nH]ccc3c2)CCN1c1ccc2ncsc2c1` [Example 187A, 1-Benzothiazol-6-yl-3-(1H-pyrrolo[2,3-b]pyridin-5-yl)-imidazolidin-2-one], the figure is > 10000 nM. In the case of `Cn1cncc1N1CCN(c2ccc3ncsc3c2)C1=O` [Example 188A, 3-Benzothiazol-6-yl-3′-methyl-4,5-dihydro-3H,3′H-[1,4]biimidazolyl-2-one], the IC50 in test [2] (setting [3]) stood at 195 nM. For the compound `Cc1ccncc1N1CCN(c2cnsc2)C1=O` [Example 190A, 1-Isothiazol-4-yl-3-(4-methyl-pyridin-3-yl)-imidazolidin-2-one], the IC50 in test [2] (setting [3]) was 89 nM. Regarding `O=C1N(c2ccc3ncsc3c2)CCN1c1ccccn1` [Example 191A, 1-Benzothiazol-6-yl-3-pyridin-2-yl-imidazolidin-2-one], in test [2] (setting [4]), the IC50 is > 10000 nM. For `Cc1ccncc1N1CCN(c2cc3c(C)nccc3s2)C1=O` [Example 194A], the IC50 in test [2] (setting [3]) was 21 nM. Regarding `CC(O)c1ccncc1N1CCN(c2ccc3ncsc3c2)C1=O` (centres unmarked) [Example 195A, 1-Benzothiazol-6-yl-3-[4-(1-hydroxyethyl)-pyridin-3-yl]-imidazolidin-2-one], the inhibition at 0.1 µM in test [1] was found to be 8%.
